Assay results published in patent US20210346321A1, “PHARMACEUTICAL COMPOSITION CONTAINING ALKYL CARBAMOYL NAPHTHALENYLOXY OCTENOYL HYDROXYAMIDE PHOSPHATE, TARTRATE OR COMBINATION THEREOF, AND PREPARATION METHOD THEREFOR” (CRYSTALGENOMICS, INC., priority 2018, published 2021).
“Also recorded” adds a separate entry of the source. Values belong to the compound of their own block, whether it stands above or below them.

Assays:
Type in all cases: physicochemical
[1] = Evaluation of change in content on storage (HPLC)
Source text: (§1) In order to evaluate the stability of the compound according to the present invention, an alkylcarbamoyl naphthalenyloxy octenoyl hydroxyamide compound was used in Comparative Example 1, an alkyl carbamoyl naphthalenyloxy octenoyl hydroxyamide tartrate was used in Example 13 and alkylcarbamoyl naphthalenyloxy octenoyl hydroxyamide phosphate was used in Example 14. As alkylcarbamoyl naphthalenyloxy octenoyl hydroxyamide, (E)-N1-(3-(dimethylamino)propyl)-N8-hydroxy-2-((naphthalen-1-yloxy)methyl)-2-octenediamide compound was used. Evaluation of stability was conducted by observing the change with storage time under room temperature (20-25° C., 50% or less), long-term (25±2° C. and 60±5% RH), accelerated (40±2° C. and 75±5% RH) and severe (60±2° C.) conditions.
In order to evaluate the change in the content of the compounds according to Examples, each compound was stored in an open state or in a polyethylene bottle packaging (silica gel added) to measure the change in content. For measurement of content, compounds of Comparative Examples and Examples were pretreated and then the solutions were tested according to the liquid chromatography method of the general test methods of the Korean Pharmacopoeia to determine the peak area of CG200745 (measurement equipment: HPLC LC-2030C_Shimadzu). The content standard is to contain CG200745 in an amount corresponding to 95.0-105.5% of the indicated amount according to the standards and test methods of the present applicant.
The results measured in the open state are shown in Table 14 below, and the results measured in the bottle packaging are shown in Table 15 below.

[2] = Comparison of the amount of change in related substances of the compounds; conditions: for increase in the amount of related substances: open state at room temperature for 3 days
Protocol: In order to evaluate the amount of change in the related substances of Example 12, the composition of Example 12 was placed in an accelerated condition chamber ([…], 75%±5), and the amount of related substance produced was measured for 6 months. For the measurement of the amount of related substances produced, the composition of Example 12 was pretreated and then tested according to the liquid chromatography method of the general test method of the Korean Pharmacopoeia to determine peak areas of the produced related substances (individual related substance 0.2% or less, total related substances 1.0%, measuring equipment: HPLC LC-2030C_Shimadzu). In Table 12, the amount of related substances produced is expressed in %. In addition, FIG. 3 is a result of measuring the related substance at 28 minutes under the accelerated condition, and the reference value is 0.2%.
In order to evaluate the amount of change in related substances of the compounds according to Comparative Examples and Examples, each compound was stored in an open state at room temperature for 3 days, and then the amount of related substances produced was measured in the same manner as in Experimental Example 3 and the results are shown in FIG. 5.
In addition, changes in the amount of related substances produced according to temperature and storage period are shown in FIGS. 6 and 7 for the compounds according to Examples 13 and 14.

[3] = Evaluation of change in appearance on storage; conditions: for change in appearance: open state storage, all conditions
Source text: as §1
In order to evaluate the change in appearance of the compounds according to Comparative Examples and Examples, each compound was stored in an open state according to the conditions shown in Table 13 below, and then the change in appearance was observed.

[4] = Evaluation of change in moisture content (Karl Fischer); conditions: open state, room temperature (20 to 25° C., 50% or less), after 3 days versus initial
Source text: as §1
In order to evaluate the change in moisture content, the compounds according to Examples and Comparative Examples were stored in an open state at room temperature (20 to 25° C., 50% or less), and the change was measured by the difference between the initial moisture content and the moisture content after 3 days, and the results are shown in FIG. 4. Moisture content was measured according to the volumetric titration method among methods of determining the water content (Karl Fischer method) of the general test methods of the Korean Pharmacopoeia (measurement equipment: 701KF_Metrohm).

[5] = bottle packaging, 1 day, Accelerated
[6] = bottle packaging, 1 day, Long-term
[7] = bottle packaging, 1 day, Room temperature
[8] = bottle packaging, 1 day, Severe
[9] = bottle packaging, 3 days, Accelerated
[10] = bottle packaging, 3 days, Long-term
[11] = bottle packaging, 3 days, Room temperature
[12] = bottle packaging, 7 days, Accelerated
[13] = bottle packaging, 7 days, Long-term
[14] = bottle packaging, 7 days, Room temperature
[15] = polyethylene bottle packaging (silica gel added), Initial
[16] = open state, 1 day, Accelerated (40±2° C., 75±5% RH)
[17] = open state, 1 day, Long-term (25±2° C., 60±5% RH)
[18] = open state, 7 days, Room temperature (20-25° C., 50% or less)

content of CG200745 [1, 5]: 101.2%
content of CG200745 [1, 6]: 103.5%
content of CG200745 [1, 7]: 98.6%
content of CG200745 [1, 8]: 101.6%
content of CG200745 [1, 9]: 100.1%
content of CG200745 [1, 10]: 99.9%
content of CG200745 [1, 11]: 98.8%
content of CG200745 ([1]; bottle packaging, 3 days, Severe): 100.4%
content of CG200745 [1, 12]: 101.1%
content of CG200745 [1, 13]: 100.9%
content of CG200745 [1, 14]: 99.3%
content of CG200745 ([1]; bottle packaging, 7 days, Severe): 101.4%
content of CG200745 [1, 15]: 99.5%
increase in the amount of related substances [2]: 0.02%
amount of related substances produced ([2]; regardless of the storage temperature and period (FIG. 7)): about 0.22%
appearance ([3]; Initial): Powder
appearance [3, 16]: Powder
appearance [3, 17]: Powder
appearance ([3]; open state, 1 day, Room temperature (20-25° C., 50% or less)): Powder
appearance ([3]; open state, 1 day, Severe (60±2° C.)): Powder
appearance ([3]; open state, 7 days, Accelerated (40±2° C., 75±5% RH)): Powder
appearance ([3]; open state, 7 days, Long-term (25±2° C., 60±5% RH)): Powder
appearance [3, 18]: Powder
appearance ([3]; open state, 7 days, Severe (60±2° C.)): Powder
increase in moisture content [4]: about 0.01%
Compound: CN(C)CCCNC(=O)/C(=C/CCCCC(=O)NO)COc1cccc2ccccc12.O=P(O)(O)O [Example 14, (E)-N1-(3-(dimethylamino)propyl)-N8-hydroxy-2-((naphthalen-1-yloxy)methyl)-2-octenediamide phosphate]
content on storage ([1]; all packaging conditions, heating, humidity): kept constant regardless of packaging conditions, heating, and humidity
change in appearance [3]: remained constant regardless of the condition

content of CG200745 [1, 5]: 89.1%
content of CG200745 [1, 6]: 99.1%
content of CG200745 [1, 7]: 99.3%
content of CG200745 [1, 8]: 101.2%
content of CG200745 [1, 9]: 84.0%
content of CG200745 [1, 10]: 84.0%
content of CG200745 [1, 11]: 99.5%
content of CG200745 [1, 12]: 78.5%
content of CG200745 [1, 13]: 78.5%
content of CG200745 [1, 14]: 99.4%
content of CG200745 ([1]; open state, 1 day, Accelerated, listed as Comp. Ex. 1): 92.3%
content of CG200745 ([1]; open state, 1 day, Long-term, listed as Comp. Ex. 1): 99.9%
content of CG200745 ([1]; open state, 1 day, Room temperature, listed as Comp. Ex. 1): 101.0%
content of CG200745 ([1]; open state, 1 day, Severe, listed as Comp. Ex. 1): 101.1%
content of CG200745 ([1]; open state, 3 days, Room temperature, listed as Comp. Ex. 1): 101.9%
content of CG200745 ([1]; open state, 3 days, Severe, listed as Comp. Ex. 1): 97.2%
content of CG200745 ([1]; open state, 7 days, Room temperature, listed as Comp. Ex. 1): 100.1%
content of CG200745 ([1]; open state, 7 days, Severe, listed as Comp. Ex. 1): 89.1%
content of CG200745 ([1]; open state, Initial, listed as Comp. Ex. 1): 98.9%
content of CG200745 [1, 15]: 98.9%
increase in the amount of related substances [2]: about 10%
appearance ([3]; Initial, listed as Comp. Ex. 1): Foam
appearance [3, 16]: Gel-like
appearance [3, 17]: Gel-like
appearance ([3]; open state, 1 day, Room temperature (20-25° C., 50% or less), listed as Comp. Ex. 1): Gel-like
appearance ([3]; open state, 1 day, Severe (60±2° C.), listed as Comp. Ex. 1): Gel-like
increase in moisture content [4]: about 3%
Compound: CN(C)CCCNC(=O)/C(=C/CCCCC(=O)NO)COc1cccc2ccccc12 [Comparative Example 1, (E)-N1-(3-(dimethylamino)propyl)-N8-hydroxy-2-((naphthalen-1-yloxy)methyl)-2-octenediamide, reference compound]
change in appearance [3]: changed from a foam to a highly viscous liquid or gel

content of CG200745 ([1]; open state, 1 day, Accelerated, listed as Ex. 13): 104.6%
content of CG200745 ([1]; open state, 1 day, Long-term, listed as Ex. 13): 104.3%
content of CG200745 ([1]; open state, 1 day, Room temperature, listed as Ex. 13): 103.4%
content of CG200745 ([1]; open state, 1 day, Severe, listed as Ex. 13): 103.3%
content of CG200745 ([1]; open state, 3 days, Accelerated): 102.3%
content of CG200745 ([1]; open state, 3 days, Long-term): 102.6%
content of CG200745 ([1]; open state, 3 days, Room temperature, listed as Ex. 13): 102.6%
content of CG200745 ([1]; open state, 3 days, Severe, listed as Ex. 13): 99.6%
content of CG200745 ([1]; open state, 7 days, Accelerated): 100.7%
content of CG200745 ([1]; open state, 7 days, Long-term): 99.4%
content of CG200745 ([1]; open state, 7 days, Room temperature, listed as Ex. 13): 100.0%
content of CG200745 ([1]; open state, 7 days, Severe, listed as Ex. 13): 102.2%
content of CG200745 ([1]; open state, Initial, listed as Ex. 13): 99.5%
content on storage ([1]; under the room temperature condition): maintained at a certain level
increase in the amount of related substances [2]: 0.05%
appearance ([3]; Initial, listed as Ex. 13): Powder
appearance [3, 16]: Gel-like
appearance [3, 17]: Gel-like
appearance ([3]; open state, 1 day, Room temperature (20-25° C., 50% or less), listed as Ex. 13): Powder
appearance ([3]; open state, 1 day, Severe (60±2° C.), listed as Ex. 13): Powder
appearance [3, 18]: Powder
appearance ([3]; open state, 7 days, Severe (60±2° C.), listed as Ex. 13): Powder; also recorded: Discoloration
increase in moisture content [4]: 2%
Compound: CN(C)CCCNC(=O)/C(=C/CCCCC(=O)NO)COc1cccc2ccccc12 [Example 13, (E)-N1-(3-(dimethylamino)propyl)-N8-hydroxy-2-((naphthalen-1-yloxy)methyl)-2-octenediamide]
amount of related substances produced according to storage temperature ([2]; FIG. 6): maintained within a certain range at a relatively low temperature
